Data set [1] can be described thus: LC-MS/MS lipid profiling in mouse models of chemotherapy-induced peripheral neuropathic pain. As to conditions: for concentrations of 9,10-EpOME: various pain relevant tissues and plasma following paclitaxel (6 mg/kg i.p.) or oxaliplatin (3 mg/kg i.p.) treatment, measurable as early as 24 hours after injection; for concentrations of 9-HODE / concentrations of 13-HODE: various pain relevant tissues and plasma following paclitaxel or oxaliplatin treatment.
Procedure: For all behavioral experiments, only 6-12 weeks old male C57BL/6N mice were used and purchased from commercial breeding companies (Charles River, Sulzfeld, Germany, Janvier, Le Geneset-Saint-Isle, FR). To compare mechanical thresholds, age and sex matched littermates were used as control.
Paclitaxel was dissolved in Cremophor EL/Ethanol 1:1 and diluted in saline. The dose for intraperitoneal injection was set to 6 mg/kg as described previously [4]. Oxaliplatin was dissolved in saline. The dose for intraperitoneal injection was set to 3 mg/kg as described previously [5].
For the measurement of epoxy lipids and HETEs stock solutions of the analytes 9,10-EpOME, 9-HODE, 13-HODE, 12-HETE and 15-HETE and internal standards 9,10-EpOME-d4, 9-HODE-d4, 13-HODE-d4, 12-HETE-d4 and 15-HETE-d4 are generated with concentrations of 2500 ng/ml in ethanol. Working standards were obtained by further dilution with a concentration range of 0.1-250 ng/ml for all analytes.
For prostanoids, stock solutions with 50,000 ng/ml of all analytes (6-keto-PGF1α) and internal standards (6-keto-PGF1α-d4) were prepared in methanol.
Lipids are extracted twice with 600 μl of ethyl acetate using liquid-liquid extraction. The combined organic phases were removed at a temperature of 45° C. under a gentle stream of nitrogen. The residues were reconstituted with 50 μl of methanol/water/butylated hydroxytoluene (BHT) (50:50:10^−3, v/v/v) (EpOMEs, HODEs and HETEs), or 50 μl of acetonitrile/water/formic acid (20:80:0.0025, v/v/v) (6-keto-PGF1α) and then centrifuged for 2 min at 10,000 g, and transferred to glass vials waiting for analysis.
The LC-MS/MS system consists of a QTrap 5500 (AB Sciex, Darmstadt, Germany) equipped with a Turbo-V source operating in negative electrospray ionization mode, an Agilent 1200 binary HPLC pump and degasser (Agilent, Waldbronn, Germany), and an HTC Pal autosampler (CTC analytics, Zwingen, Switzerland). High-purity nitrogen for the mass spectrometer was produced by a NGM 22-LC-MS nitrogen generator (cmc Instruments, Eschborn, Germany).
For the chromatographic separation of EpOMEs, HODEs and HETEs, a Gemini NX C18 column and precolumn were used (150×2 mm inner diameter, 5 μm particle size, and 110 Å pore size; Phenomenex, Aschaffenburg, Germany). For the chromatographic separation of prostanoids, a Synergi 4 u Hydro-RP column (150×2 mm inner diameter, 4 μm, Phenomenex, Aschaffenburg, Germany) and a precolumn of same material were used.
Mobile phase A consist of water: ammonia (100:0.05, v/v), and mobile phase B of acetonitrile ammonia (100:0.05, v/v). The gradient changed from 85% A to 10% within 12 min. These conditions were held for 1 min.
For the chromatographic separation of prostanoids, a Synergi 4 u Hydro-RP column (150×2 mm inner diameter, 4 μm, Phenomenex, Aschaffenburg, Germany) and a precolumn of same material were used.

Data set [2] in a line: Plasma concentrations of 9,10-EpOME and 9,10-DiHOME after paclitaxel treatment, with telmisartan administration. Format: in vivo, mice. Conditions: 8 d after paclitaxel-treatment (6 mg/kg); telmisartan 10 mg/kg, 2 h. Here is the method: FIG. 4: Plasma-concentrations of 9,10-EpoME and its Metabolite 9,10-DiHOME 8d after paclitaxel-treatment (6 mg/kg) can be reduced by administration of telmisartan (10 mg/kg, 2h). Data are shown as mean±SEM from five mice per group; one-way ANOVA, *p<0.05.
Oxaliplatin was dissolved in saline.
These conditions were held for 1 min.
Ratios of analyte peak area and internal standard area.

Where [3] appears, read: pain relevant tissues, FIG. 2: 8 d after i.p. paclitaxel (6 mg/kg).

Structures are written as SMILES.

Consider `CC(=O)O[C@H]1C(=O)[C@@]2(C)[C@H]([C@H](OC(=O)c3ccccc3)[C@]3(O)C[C@H](OC(=O)[C@H](O)[C@@H](NC(=O)c4ccccc4)c4ccccc4)C(C)=C1C3(C)C)[C@]1(OC(C)=O)CO[C@@H]1C[C@@H]2O` [paclitaxel], for which, in data set [1] (setting [3]), the “concentrations of 12-HETE” value is listed as “decreased” and the “concentrations of 15-HETE” value is “decreased”. In data set [1] (pain relevant tissues, FIG. 2: 8 d after multiple i.p. paclitaxel (4×2 mg/kg, every other day)), the “concentrations of 6-keto-Prostaglandin-F1α” value is “decreased”. Further, in data set [1], the “concentrations of 9,10-EpOME” value is recorded as “elevated”, the “concentrations of 9-HODE” value is “elevated” and the “concentrations of 13-HODE” value is on record as “elevated”.

For `O=C1[O][Pt]2([NH][C@@H]3CCCC[C@H]3[NH]2)[O]C1=O` [oxaliplatin], in data set [1], the “concentrations of 9,10-EpOME” value was “elevated”, the “concentrations of 9-HODE” value was “elevated” and the “concentrations of 13-HODE” value is recorded as “elevated”.

Take `CCCc1nc2c(C)cc(-c3nc4ccccc4n3C)cc2n1Cc1ccc(-c2ccccc2C(=O)O)cc1` [telmisartan]: in data set [2], the “Plasma-concentrations of 9,10-DiHOME” value is recorded as “reduced” and the “Plasma-concentrations of 9,10-EpOME” value was “reduced”.

The record behind these values is patent US20200200775A1, “OXIDIZED LIPIDS AS BIOMARKERS FOR NEUROPATHIC PAIN” (Fraunhofer-Gesellschaft zur Förderung der angewandten …, priority 2017, published 2020).
